From patent publication US10532085B2, “Methods for increasing intracellular activity of Hsp70” (Orphazyme A/S, priority 2010, dated 2020)

Columns and labels:
[1] = Liposome 90° light scattering, BMP; assay type: binding; settings: pH 6.0 vs pH 7.4
Source text: Thus, we investigated the interaction of Hsp70 with palmitoyl-oleoyl-phosphatidylcholine (POPC) large unilamellar vesicles (LUVs) containing various membrane-associated anionic lipids, i.e. palmitoyl-oleoyl-phosphatidylserine (POPS; primarily in plasma membrane), cardiolipin (primarily mitochondrial) and BMP (primarily in late endosomes/lysosomes). Taking into account the increasingly acidic milieu of the endo-lysosomal compartment upon maturation to lysosomes, we compared the protein-lipid interactions in neutral (pH 7.4) and acidic (pH 6.0) conditions. […] As reported earlier for POPS, all negatively charged lipids enhanced the binding of rHsp70 to the liposomes at neutral pH approximately 4-fold irrespective of the charge density on the liposome surface (ranging from −1 to −2).
The tryptophan fluorescence spectra (RFI) and liposome 90° light scattering (RSI) were analyzed in a HEPES buffer (20 mM HEPES, 0.1 mM EDTA, pH 7.4 or 6.0 as indicated) employing LUVs consisting of indicated lipids essentially as described in the art. For the RFI, LUVs were added in 10 μM aliquots and spectra recorded after a 20 min stabilization period. For the RSI, recombinant proteins were added in 0.12 nmol aliquots.

[2] = system: primary fibroblasts from Niemann-Pick Disease type C1 patient; experiment: Lysosomal cross-sectional area, laser confocal microscopy, NPC1 fibroblasts; assay type: cell-based, human; settings: Alexa Fluor 488 labelled, added for 48 h; GM17918
Protocol: (§1) FIG. 7: Test of rhHSP70 in non-sphingolipidosis. rhHSP70 labelled with Alexa Fluor 488 (for visualization of uptake) was added for 48 h to primary fibroblasts from Niemann-Pick Disease type C1 patient (Coriell Cell Repository ID: GM17918). Read-out: lysosomal cross-sectional area (Primary cellular pathology), performed by laser confocal microscopy.

NPC−/− mice [3] = experiment: NPC1 in vivo pilot study: growth curves; settings: 10 mg/kg IP three times per week from 3 weeks of age vs PBS
Protocol: FIG. 12: Control NPC−/− mice (A) have shallower and more sporadic growth patterns than HSP70 treated mice (B). Points where growth curves stop abruptly, indicates mice killed for organs. In panel A: Series 1 and 3 are female; Series 2 and 5-8 are male. In panel B: Series 2 and 4-7 are female; Series 1, 3, and 8 are male.
(§2) Eight treated (rHSP70) NPC^−/− versus eight control (PBS only) NPC^−/− controls. Mice were treated IP three times per week with either 10 mg/kg of rHSP70 or vehicle alone (PBS) from 3 weeks of age. Three control and three treated mice were sacrificed at 7 or 9 weeks old (i.e. after 4 or 6 weeks of treatment, respectively). Organs were perfused (PBS), weighed and frozen for biochemical and immunohistochemical analysis.

[4] = system: primary fibroblasts from Mucopolysaccharidosis type IIIA patient; experiment: Lysosomal cross-sectional area, laser confocal microscopy, MPS IIIA fibroblasts; assay type: cell-based, human; settings: Alexa Fluor 488 labelled, added for 48 h; GM00879
Protocol: as §1, with “8:” for “7:”, “Mucopolysaccharidosis” for “Niemann-Pick Disease”, “IIIA (aka Sanfilippo type IIIA)” for “C1”, “GM00879).” for “GM17918).”

NPC−/− mice [5] = experiment: NPC1 in vivo pilot study: tremor analysis; settings: automated tremor monitor; particularly pronounced in the lowest frequency range
Protocol: as §2
Behavioural experiments were performed from 3 weeks of age, as described previously. Briefly, tremor analysis was performed using an automated tremor monitor (San Diego instruments) Gait analysis was performed by painting front and hind paws with non-toxic paint and allowing the mice to walk over Whatman 3M paper. Paw placement was measured to determine how closely their hind paws superimposed their front paws, the length of the stride and the width of their gait.

ASM = biological target: T1, ASM (Homo sapiens, UniProt P17405); experiment: BIAcore: binding of ASM to BMP-containing LUVs after rHsp70 pretreatment
T1 construct: made in house
T1 sequence (P17405 47-631): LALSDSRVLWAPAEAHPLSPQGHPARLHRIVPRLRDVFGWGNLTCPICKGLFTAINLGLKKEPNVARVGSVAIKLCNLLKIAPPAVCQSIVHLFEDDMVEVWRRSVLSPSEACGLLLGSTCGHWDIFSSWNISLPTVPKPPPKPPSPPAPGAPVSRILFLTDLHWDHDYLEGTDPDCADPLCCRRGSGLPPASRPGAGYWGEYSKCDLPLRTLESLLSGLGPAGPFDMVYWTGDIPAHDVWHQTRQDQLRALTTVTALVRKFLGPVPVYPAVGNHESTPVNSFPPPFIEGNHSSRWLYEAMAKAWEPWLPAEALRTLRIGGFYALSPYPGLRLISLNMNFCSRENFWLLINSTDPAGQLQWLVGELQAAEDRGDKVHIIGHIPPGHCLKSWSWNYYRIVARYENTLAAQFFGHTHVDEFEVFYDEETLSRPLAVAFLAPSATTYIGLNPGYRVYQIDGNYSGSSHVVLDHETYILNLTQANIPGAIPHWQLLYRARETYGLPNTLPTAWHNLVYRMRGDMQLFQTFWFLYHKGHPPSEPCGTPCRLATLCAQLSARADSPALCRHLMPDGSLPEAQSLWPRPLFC
Source text: BMP binds ASM with high affinity and stimulates its ability to hydrolyze sphingomyelin to ceramide and phosphorylcholine. […] In order to test whether ASM is responsible for the lysosome stabilizing effect we treated the cells with desipramine, a well characterized pharmacological ASM inhibitor. […] It should be noted that akin to rHsp70, also rASM localized to the lysosomes.
For preparation of LUVs a lipid mixture consisting of 10 mol % sphingomyelin, 50 mol % phosphatidylcholine, 20 mol % cholesterol and 20 mol % BMP dissolved in organic solvents, was dried under a stream of argon and rehydrated in Tris/HCl buffer (pH 7.4). The mixture was freeze-thawed nine times in liquid nitrogen and then in an incubator at 37° C. After ultrasound bath for 15 min the mixture was passed 21 times through a polycarbonate membrane with a pore diameter of 100 nm. Surface plasmon resonance measurements were performed using a BIAcore 2000 system at 25° C. LUVs (total lipid concentration 0.1 mM) were immobilized on the surface of a L1 sensor chip (BIAcore) in PBS (loading buffer). The running buffer used was sodium acetate buffer (50 mM, pH 4.5). As a control, acid sphingomyelinase (0.2 μM, 60 μl in running buffer) was injected directly on the liposome surface. Response units between 4100 RU—5250RU were obtained. […]

NPC−/− mice [6] = experiment: NPC1 in vivo pilot study: organ weights; settings: 10 mg/kg IP three times per week; sacrificed at 7 or 9 weeks old
Protocol: as §2

Substance: rHsp70: recombinant (human) heat shock protein 70; in some tests labelled with Alexa Fluor 488
- binding to BMP at acidic pH as compared to neutral pH [1]: ~20 times
- lysosomal cross-sectional area (primary cellular pathology) [2]: effectively reverts the lysosomal primary pathology
- growth curves (body weight) (NPC−/− mice [3]): rise more steadily and reach higher weights
- lysosomal cross-sectional area (primary cellular pathology) [4]: effectively reverts the lysosomal primary pathology
- tremor (NPC−/− mice [5]): increased tremor from 3 weeks of treatment and remained increased until endstage
- subsequent binding of ASM to BMP-containing LUVs (ASM; higher rHsp70 concentrations): inhibitory effect
- subsequent binding of ASM to BMP-containing LUVs (ASM; pretreatment with rHsp70 at sub-equimolar concentrations): facilitated the subsequent binding of ASM
- organ weights (NPC−/− mice [6]): No differences
